“And” between values parts separate entries of the source, which are not always exact repeats. Equal values may be shown once.

We go through four molecules from paper PMC7069944, “Amino acid levels determine metabolism and CYP450 function of hepatocytes and hepatoma cell lines” (Nature Communications, 2020).

The subject of one data set is HepG2. As to the kind of experiment: Repeated-exposure DILI training compounds, resazurin conversion, HepG2. The following applies: for % resazurin conversion: repeat exposure; for resazurin conversion (Supplementary Figure 7D): replicates. The protocol: (§1) To evaluate the ability to predict hepatotoxicity, we adapted the differentiation assays to a 384-well format. […] As a readout, we evaluated cell viability by resazurin conversion and correlated the results to therapeutic doses (Cmax values).
(§2) PSCs were differentiated in a 384-well format. […] As a negative control, 41 wells were left untreated. HepG2 were seeded at 40,000 cells per well. […] Cells were fixed with 4% PFA. […] Drugs were administrated after 8 h of attachment.
On the technique in general: Resazurin is reduced to fluorescent resorufin, in cell work by metabolically active cells.

Another data set deals with HC6X. Briefly: Repeated-exposure DILI training compounds, resazurin conversion, HC6X. The following applies: for % resazurin conversion: repeat exposure; for resazurin conversion (Supplementary Figure 7D): replicates. The method, then:
as §1, §2

In the next data set the test system is HLC. As to the kind of experiment: Repeated-exposure DILI training compounds, resazurin conversion, HLC. The following applies: repeat exposure. The method, then:
as §1, §2

Another data set concerns HC3X. Briefly: Repeated-exposure DILI training compounds, resazurin conversion, HC3X. As to conditions: for IC50/Cmax: human; for resazurin conversion (Supplementary Figure 7D): HC3X AAGLY D40, replicates. The method, then: as §1, §2
Where [1] appears, read: HC6X AAGLY D40 Remove dox, 100 uM.

Take `O=C1CC2(CCCC2)CC(=O)N1CCCCN1CCN(c2ncccn2)CC1` [Buspiron]: the “% resazurin conversion” value was 82.9% and 82.6% and 85.2% and 70.1% and 73.2% in the data set with HepG2 (HepG2 AAGLY D30, 3 uM); 75.8% and 88.2% and 72.9% and 66.2% and 79.4% and 72.2% with HepG2 (HepG2 AAGLY D30, 5 uM); 70.9% and 76.8% and 83.7% and 64.5% and 73.5% and 76.4% with HepG2 (HepG2 AAGLY D30, 10 uM); 83.2% and 92.9% and 78.7% and 72.3% and 78.9% and 76.5% in the data set on HepG2 (HepG2 AAGLY D30, 30 uM); 80.3% and 98.3% and 89.9% and 83.3% and 93.4% and 81.9% with HepG2 (HepG2 AAGLY D30, 50 uM); 88.3% and 87.7% and 85.2% and 77.2% and 94.7% and 81.8% in the data set with HepG2 (HepG2 AAGLY D30, 100 uM). Also, the “% resazurin conversion” value with HepG2 (HepG2 AAGLY D30, 300 uM) is 47.4% and 86.8% and 88.6% and 79.7% and 88.3% and 80.1%; in the data set on HepG2 (HepG2 AAGLY D30, 600 uM), 76.5% and 91.9% and 75.1% and 71.1% and 78% and 76.7%; with HepG2 (HepG2 AAGLY D30, 1200 uM), 38% and 34.1% and 34.5% and 34.6% and 35.7%; in the data set with HepG2 (HepG2 CTL D7, 3 uM), 92.8%; in the data set with HepG2 (HepG2 CTL D7, 5 uM), 96.4% and 97.6% and 106.5% and 96.6% and 98% and 90.2%; in the data set on HepG2 (HepG2 CTL D7, 10 uM) it was 94.3% and 94.1% and 99.5% and 93.5% and 98.4% and 95.6%. In addition, the “% resazurin conversion” value with HepG2 (HepG2 CTL D7, 30 uM) is 82.7% and 84.2% and 92.3% and 83% and 85.3% and 78.8%; in the data set on HepG2 (HepG2 CTL D7, 50 uM) it was 72.7% and 67.2% and 78.7% and 68.5% and 76.7% and 71.9%; in the data set with HepG2 (HepG2 CTL D7, 100 uM), 67.5% and 61.8% and 72.7% and 60.8% and 71.2% and 63.1%; in the data set on HepG2 (HepG2 CTL D7, 300 uM), 61.1% and 51.9% and 57.2% and 57% and 59.1% and 57.6%; with HepG2 (HepG2 CTL D7, 600 uM), 38.6% and 29% and 35.3% and 36.3% and 35.1% and 38.2%; with HepG2 (HepG2 CTL D7, 1200 uM) it was 7% and 6.5% and 7.1% and 6.8% and 6.6%. Moreover, the “% resazurin conversion” value is 109.5% and 96.9% and 120.8% and 98% and 87.5% and 117.9% in the data set on HC6X (HC6X AAGLY D40, 3 uM); 83.7% and 97.5% and 104.1% and 109.8% and 83.3% and 99.7% with HC6X (HC6X AAGLY D40, 5 uM); 85.5% and 135.9% and 111.1% and 117.5% and 91.9% and 102.2% in the data set on HC6X (HC6X AAGLY D40, 10 uM); 114% and 167.8% and 149.8% and 117.8% and 94% and 164.1% in the data set on HC6X (HC6X AAGLY D40, 30 uM); 112.9% and 116.6% and 111.2% and 167.3% and 107.2% and 107.3% with HC6X (HC6X AAGLY D40, 50 uM); 109.2% and 112.4% and 163.5% and 127.2% and 106% and 162.8% in the data set on HC6X (HC6X AAGLY D40, 100 uM). The “% resazurin conversion” value was 140.3% and 103.5% and 121.9% and 115.9% and 101.2% and 155.2% in the data set on HC6X (HC6X AAGLY D40, 300 uM); 143.6% and 91% and 112.3% and 121.3% and 99.3% and 149.8% with HC6X (HC6X AAGLY D40, 600 uM); 56.9% and 60.8% and 76.3% and 66.9% and 59.2% with HC6X (HC6X AAGLY D40, 1200 uM); 93.4% and 152.6% and 130.2% and 156.1% and 101.5% and 127.1% with HC6X (HC6X AAGLY D40 Remove dox, 3 uM); 169.9% and 114.9% and 169.4% and 120.1% and 97.5% and 96% with HC6X (HC6X AAGLY D40 Remove dox, 10 uM); 158.4% and 106.8% and 179.1% and 111.4% and 123.7% and 132% in the data set on HC6X (setting [1]). Besides, the “% resazurin conversion” value in the data set on HLC (HLC AAGLY D40, 5 uM) was 67.7% and 92.7% and 64.2% and 84.3% and 47.9% and 66.7%; in the data set on HLC (HLC AAGLY D40, 10 uM), 85.8% and 64.9% and 92.1% and 82% and 66.1% and 66.8%; in the data set with HLC (HLC AAGLY D40, 30 uM), 116.3% and 73.9% and 114.6% and 80.9% and 111.6% and 83.2%; with HLC (HLC AAGLY D40, 600 uM), 33.4% and 36.6% and 61.5% and 38.3% and 40.4% and 34.1%; in the data set on HLC (HLC AAGLY D40, 1200 uM) it was 36.8% and 25.4% and 26.6% and 31.3% and 28.1% and 38%; in the data set with HLC (HLC LDM D40, 3 uM), 103.9% and 103.1% and 108.1% and 79.4% and 66.2% and 77.5%. The “% resazurin conversion” value in the data set on HLC (HLC LDM D40, 5 uM) is 89.3% and 69.5% and 87.6% and 70.2% and 108.2%; in the data set with HLC (HLC LDM D40, 10 uM), 86.6% and 87.3% and 101% and 83.8% and 104.7% and 105%; in the data set on HLC (HLC LDM D40, 30 uM), 71.9% and 90.1% and 102.1% and 75.5% and 80.5% and 81.4%; in the data set on HLC (HLC LDM D40, 50 uM), 56.1% and 105.8% and 92.3% and 104% and 79.6%; with HLC (HLC LDM D40, 100 uM), 84.7% and 120.8% and 121.2% and 77.9% and 92% and 91.2%.
Molecule `O=C1CC2(CCCC2)CC(=O)N1CCCCN1CCN(c2ncccn2)CC1` [Buspirone] had an IC50/Cmax in the data set with HC3X of 120200.
Consider `CCc1ccc(CCOc2ccc(CC3SC(=O)NC3=O)cc2)nc1` (stereo not shown) [Proglitazone], for which the “resazurin conversion (Supplementary Figure 7D)” value in the data set with HepG2 (HepG2 AAGLY D30, 30 uM) is 76.5 (2×) and 98.3 and 82.8 and 103.2 and 80.9; in the data set on HepG2 (HepG2 AAGLY D30, 50 uM), 86.1 and 109.6 and 86.4 and 100 and 77.1 and 92.9; with HepG2 (HepG2 AAGLY D30, 100 uM), 85.4 and 96.2 and 90.6 and 100.7 and 78.9 and 86.6; in the data set on HepG2 (HepG2 AAGLY D30, 300 uM), 105.7 and 117.9 and 106.2 and 102.2; with HepG2 (HepG2 AAGLY D30, 600 uM) it was 91.8 and 99.3 and 126.4 and 102.6 and 116.8; in the data set with HepG2 (HepG2 AAGLY D30, 1200 uM) it was 95.2 and 102.5 and 118.4 and 129.4 and 110.4 and 135.6. Also, the “resazurin conversion (Supplementary Figure 7D)” value is 120.4 and 118.8 and 101.6 and 104 and 100.1 in the data set on HepG2 (HepG2 CTL D7, 30 uM); 129.5 and 93.8 and 100.8 and 96.7 and 101.2 and 122.3 in the data set with HepG2 (HepG2 CTL D7, 50 uM); 125.4 and 88.5 and 98 and 96 (2×) and 110.7 in the data set with HepG2 (HepG2 CTL D7, 100 uM); 117.2 and 87 and 94.6 (2×) and 95.5 and 111.8 in the data set on HepG2 (HepG2 CTL D7, 300 uM); 86.3 and 70.3 and 76.6 and 75.3 and 70.1 and 87.4 in the data set on HepG2 (HepG2 CTL D7, 600 uM); 57 and 33 and 42.5 and 44.8 and 41.7 and 59 in the data set on HepG2 (HepG2 CTL D7, 1200 uM). The “resazurin conversion (Supplementary Figure 7D)” value in the data set with HC6X (HC6X AAGLY D40, 30 uM) was 134.4 and 112 and 79.3 and 107.2 and 76.2 and 91.4; in the data set with HC6X (HC6X AAGLY D40, 50 uM) it was 137 and 83.7 and 59.1 and 75.7 and 149.3 and 136.5; in the data set on HC6X (HC6X AAGLY D40, 100 uM), 100.9 and 141.3 and 83.6 and 90.9 and 69.2 and 155.3; in the data set on HC6X (HC6X AAGLY D40, 300 uM) it was 125.9 and 124.5 and 135.2 and 127.1 and 125.2 and 153.4; in the data set on HC6X (HC6X AAGLY D40, 600 uM), 91.5 and 88.8 and 88.2 and 125.7 and 101 and 136.6; in the data set with HC6X (HC6X AAGLY D40, 1200 uM), 94.8 and 131 and 95.9 and 103.6 and 97.2 and 136.5. The “resazurin conversion (Supplementary Figure 7D)” value in the data set on HC6X (HC6X AAGLY D40 Remove dox, 30 uM) is 121 and 98.9 and 91.2 and 87.5 and 101; with HC6X (HC6X AAGLY D40 Remove dox, 50 uM), 105.9 and 84.2 and 118.5 and 71.8 and 81.4 and 110; with HC6X (setting [1]) it was 120.6 and 83.7 and 95.6 and 119.3 and 129.6; in the data set with HC6X (HC6X AAGLY D40 Remove dox, 300 uM), 107.4 and 124.1 and 139.3 and 91.4 and 117.3 and 157.9; with HC6X (HC6X AAGLY D40 Remove dox, 600 uM), 74.1 and 108.7 and 93.3 and 116.1 and 116 and 105.8; in the data set on HC6X (HC6X AAGLY D40 Remove dox, 1200 uM), 119 and 156.2 and 148 and 139.2 and 120.5. Further, the “resazurin conversion (Supplementary Figure 7D)” value was 121 and 98.9 and 91.2 and 87.5 and 101 in the data set on HC3X (30 uM); 105.9 and 84.2 and 118.5 and 71.8 and 81.4 and 110 in the data set with HC3X (50 uM); 120.6 and 83.7 and 95.6 and 119.3 and 129.6 with HC3X (100 uM); 107.4 and 124.1 and 139.3 and 91.4 and 117.3 and 157.9 in the data set with HC3X (300 uM); 74.1 and 108.7 and 93.3 and 116.1 and 116 and 105.8 in the data set on HC3X (600 uM); 119 and 156.2 and 148 and 139.2 and 120.5 with HC3X (1200 uM).
Regarding `C1CCC(C(CC2CCCCN2)C2CCCCC2)CC1` (stereo not shown) [perhexiline], in the data set on HC3X, the IC50/Cmax worked out at 0.58.
